Experiments:
human PDE-5A1 = human PDE-5A1 (Homo sapiens, UniProt O76074); assay: Human PDE-5A1 inhibition assay (fluorescence polarization, FAM-cGMP); assay type: biochemical; conditions: read-out: IC50 (μM) PDE5A1
human PDE-6C = human PDE-6C (Homo sapiens, UniProt P51160); assay: Human PDE-6C inhibition assay (fluorescence polarization, FAM-cGMP); assay type: biochemical; conditions: read-out: IC50 (μM) PDE6C
[1] = system: intraocular pressure (IOP) of ocular hypertensive rabbits; assay: IOP lowering effect in ocular hypertensive rabbits (Example 9 Phase 2); assay type: in vivo; conditions: for Reduction ratio of IOP / OD IOP Mean: 50 μL/eye t.i.d.; for Reduction ratio of IOP: treated right vs vehicle left eye; for IOP compared with the vehicle treated eyes: p≤0.05; for OD IOP Mean: treated right eye, Day 10/11
Description: Phase 2: To confirm the IOP lowering effect of test article at different concentrations in ocular hypertensive rabbits. Modeling was induced by intracameral injection of elastic substance in both eyes, once. Then, positive control articles/test article was instilled into right eyes of animals, 50 μL/eye, once at 5-15 minutes, 3 and 6 hours post modeling, respectively. All left eyes of animals in each group were dosed with vehicle, 50 μL/eye, once at 5-15 minutes, 3 and 6 hours post modeling, respectively. IOPs was measured at pre-modeling, 1, 2, 4, 6, 8, and 10 hours post first dose.
For further analysis of the IOP reduction effect, the IOP reduction ratio was calculated using the difference between the TA/PA treated and vehicle treated eyes at each time points post first dosing. The results were tabulated below:
Animals were sedated by Ketamine (30˜50 mg/kg) and anesthetized by Xylazine (5˜10 mg/kg), intramuscularly. Disinfected the conjunctival sac by washing with 5% povidone iodine, and then washed the conjunctival sac with saline. Fixed the eyeball with forceps, then inserted needle from the temporal limbus horizontally, avoided damaging the corneal endothelial and iris. Held the syringe still and injected the Medical Sodium Hyaluronate Gel slowly into the anterior chamber, 100 μl/eye, waited for at least 10 seconds, then pulled out the needle slowly. Pressed the injection spot immediately with swab for at least 3 minutes, blocked the injection spot with one drop of tissue adhesive.
For Phase 2, 50 μL of 1% and 2% Compound 18, 0.024% latanoprostene bunod ophthalmic solution and 0.005% latanoprost eye drops were instilled into the right eyes and the same volume of Vehicle (Gel-blank) into the left eyes in Group 5 to Group 8 of Ocular Hypertensive Rabbits, 50 μL/eye, three times. The first day of dosing in phase 1 was designated as Day 1.
(§1) Delivery Method: Drawed 50 μL of the articles with a pipette, pulled out the lower eyelid of the animal, dropped the article into the conjunctiva sac, and gently closed the upper and lower eyelids for a few times.
(§2) Species/Strain: New Zealand White Rabbits (Oryctolagus cuniculus). The New Zealand White Rabbit was used in this study. This is commonly used specie for non-clinical studies of ophthalmic formulations, for which there is a large historical database, and the relative large cornea size is suitable for topical operations.
(§3) Restrained the animal, made the testing eye perpendicular to the probe of the TonoVet tonometer, measured the IOP for at least three times until the values are stable. The mean of the last three stable values were calculated as the final IOP value.
IOP Measurement in Ocular Hypertensive Rabbits: IOP was measured at pre-modeling, and once at 1, 2, 4, 6, 8, and 10 hours post first daily dose in study phase 2.

[2] = system: intraocular pressure (IOP) of ocular normotensive rabbits; assay: IOP lowering effect in ocular normotensive rabbits (Example 8; Example 9 Phase 1); assay type: in vivo, New Zealand White Rabbits (Oryctolagus cuniculus); conditions: for OD IOP Mean: 50 μL/eye once, treated right eye, Day 1
From the text: This example illustrates the procedures and results of the intraocular pressure (IOP) lowering effect of compound 18 as compared to Latanoprostene bunod and latanoprost at different concentrations in ocular normotensive rabbits.
Forty (40) male New Zealand white rabbits were divided into 4 groups with 10 animals per group. Animals were then randomly assigned to groups based on body weight.
Latanoprostene bunod ophthalmic solution (LBN, 0.024%) and latanoprost eye drops (0.005%) were used as positive controls and dosed with the same volumes into the right eyes of the tested animals in groups 1 and 2 once.
Compound 18 was instilled into the right eyes of the tested animals in groups 3 (10 mg/mL) and 4 (20 mg/mL) at 50 μL per eye once.
All left eyes of the tested animals in each group were dosed with vehicle solution at 50 μL per eye.
The intraocular pressures (IOPs) were measured once at pre-dose and then once at 1, 2, 4, 6, 8, and 10 hours post dose for each group of animals. FIGS. 1 to 4 show the results from the IOP lowering studies for all four tested groups.
Phase 1: To confirm the IOP lowering effect of test article at different concentrations in ocular normotensive rabbits. Compound 18 was instilled into right eyes of animals in groups 3 and 4, 50 μL/eye, once. 0.024% latanoprostene bunod ophthalmic solution (LBN) and 0.005% latanoprost eye drops were served as positive control and be dosed with same volume into right eyes of groups 1 and 2 animals once. All left eyes of animals in each group were dosed with vehicle once, 50 μL/eye. IOPs was measured once at pre-dose and once at 1, 2, 4, 6, 8, 10 hours post dose. […]
as §1, §2, §3
IOP Measurement in Ocular Normotensive Rabbits: IOP was measured at pre-dose and once at 1, 2, 4, 6, 8, 10 hours post dose in study phase 1.

human PDE-6C, sequence (P51160 whole entry): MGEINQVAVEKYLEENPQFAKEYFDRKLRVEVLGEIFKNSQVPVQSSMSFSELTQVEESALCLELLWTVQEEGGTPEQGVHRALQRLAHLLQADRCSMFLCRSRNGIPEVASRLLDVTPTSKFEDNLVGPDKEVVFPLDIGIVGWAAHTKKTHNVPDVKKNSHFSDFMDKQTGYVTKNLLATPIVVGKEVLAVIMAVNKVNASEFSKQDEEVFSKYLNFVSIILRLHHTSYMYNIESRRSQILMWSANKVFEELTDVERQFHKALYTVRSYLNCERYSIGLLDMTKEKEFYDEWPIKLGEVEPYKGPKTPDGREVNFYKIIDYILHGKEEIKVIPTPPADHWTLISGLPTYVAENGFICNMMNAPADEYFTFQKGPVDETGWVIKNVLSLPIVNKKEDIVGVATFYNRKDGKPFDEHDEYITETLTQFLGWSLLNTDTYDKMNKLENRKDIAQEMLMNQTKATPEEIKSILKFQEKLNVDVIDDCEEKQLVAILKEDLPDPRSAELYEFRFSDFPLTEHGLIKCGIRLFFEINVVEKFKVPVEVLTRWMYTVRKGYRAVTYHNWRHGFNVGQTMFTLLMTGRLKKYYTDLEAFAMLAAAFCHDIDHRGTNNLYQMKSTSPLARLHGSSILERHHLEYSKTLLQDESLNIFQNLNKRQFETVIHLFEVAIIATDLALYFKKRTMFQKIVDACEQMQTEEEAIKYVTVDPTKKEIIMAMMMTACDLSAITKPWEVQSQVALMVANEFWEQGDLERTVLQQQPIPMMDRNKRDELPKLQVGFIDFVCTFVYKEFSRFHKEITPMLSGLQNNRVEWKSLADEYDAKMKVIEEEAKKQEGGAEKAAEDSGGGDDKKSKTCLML

CCCc1nn(C)c2c(=O)[nH]c(-c3cc(S(=O)(=O)N4CC(CCCO)C4)ccc3OCC)nc12 [Compound 4, 5-(2-ethoxy-5-((3-(3-hydroxypropyl)azetidin-1-yl)sulfonyl)phenyl)-1-methyl-3-propyl-1,6-dihydro-7H-pyrazolo[4,3-d]pyrimidin-7-one]
IC50 (human PDE-5A1): < 0.01 µM | IC50 (human PDE-6C): < 0.01 µM

CCCc1nn(C)c2c(=O)[nH]c(-c3cc(S(=O)(=O)N4CC(CCCO[N+](=O)[O-])C4)ccc3OCC)nc12 [Compound 18, 3-(1-((4-ethoxy-3-(1-methyl-7-oxo-3-propyl-6,7-dihydro-1H-pyrazolo[4,3-d]pyrimidin-5-yl)phenyl)sulfonyl)azetidin-3-yl)propyl nitrate]
tolerability ([1]; Example 9, topical instillation in rabbits): well tolerated | Reduction ratio of IOP ([1]; Group 7, 10 mg/mL, 1 h post first dose): 23.36% | Reduction ratio of IOP ([1]; Group 7, 10 mg/mL, 2 h post first dose): 35.65% | Reduction ratio of IOP ([1]; Group 7, 10 mg/mL, 4 h post first dose): 21.68% | Reduction ratio of IOP ([1]; Group 7, 10 mg/mL, 6 h post first dose): 28.06% | Reduction ratio of IOP ([1]; Group 7, 10 mg/mL, 8 h post first dose): 23.97% | Reduction ratio of IOP ([1]; Group 7, 10 mg/mL, 10 h post first dose): 21.67% | Reduction ratio of IOP ([1]; Group 8, 20 mg/mL, 1 h post first dose): 45.31% | Reduction ratio of IOP ([1]; Group 8, 20 mg/mL, 2 h post first dose): 34.59% | Reduction ratio of IOP ([1]; Group 8, 20 mg/mL, 4 h post first dose): 26.95% | Reduction ratio of IOP ([1]; Group 8, 20 mg/mL, 6 h post first dose): 18.04% | Reduction ratio of IOP ([1]; Group 8, 20 mg/mL, 8 h post first dose): 10.85% | Reduction ratio of IOP ([1]; Group 8, 20 mg/mL, 10 h post first dose): −5.73% | IOP compared with the vehicle treated eyes ([1]; Phase 2, 10 mg/mL, at 2 h post dosing): significant decreased IOPs | IOP compared with the vehicle treated eyes ([1]; Phase 2, 20 mg/mL, at 1 h post dosing): significant decreased IOPs | OD IOP Mean ([1]; Phase 2 Group 7, 10 mg/mL (1%), 1 h post first dose): 9.19 | OD IOP Mean ([1]; Phase 2 Group 7, 10 mg/mL (1%), 2 h post first dose): 13.80 | OD IOP Mean ([1]; Phase 2 Group 7, 10 mg/mL (1%), 4 h post first dose): 20.47 | OD IOP Mean ([1]; Phase 2 Group 7, 10 mg/mL (1%), 6 h post first dose): 21.53 | OD IOP Mean ([1]; Phase 2 Group 7, 10 mg/mL (1%), 8 h post first dose): 17.82 | OD IOP Mean ([1]; Phase 2 Group 7, 10 mg/mL (1%), 10 h post first dose): 15.22 | OD IOP Mean ([1]; Phase 2 Group 8, 20 mg/mL (2%), 1 h post first dose): 11.74 | OD IOP Mean ([1]; Phase 2 Group 8, 20 mg/mL (2%), 2 h post first dose): 19.67 | OD IOP Mean ([1]; Phase 2 Group 8, 20 mg/mL (2%), 4 h post first dose): 25.57 | OD IOP Mean ([1]; Phase 2 Group 8, 20 mg/mL (2%), 6 h post first dose): 28.93 | OD IOP Mean ([1]; Phase 2 Group 8, 20 mg/mL (2%), 8 h post first dose): 27.40 | OD IOP Mean ([1]; Phase 2 Group 8, 20 mg/mL (2%), 10 h post first dose): 22.63 | IOP after administration ([2]; Example 8, both 10 mg/mL and 20 mg/mL doses): significantly lower the IOP | IOP compared with the vehicle treated eyes ([2]; Phase 1, 10 mg/mL, at 1, 2, 4 h post dosing, p≤0.05): significant decreased IOPs | IOP compared with the vehicle treated eyes ([2]; Phase 1, 20 mg/mL, at 1, 2, 4, 8, 10 h post dosing (8, 10 h, p≤0.05; 1, 4 h, p≤0.01; 2 h, p≤0.001)): significant decreased IOPs | OD IOP Mean ([2]; Phase 1 Group 3, 10 mg/mL (1%), 1 h post dose): 12.50 | OD IOP Mean ([2]; Phase 1 Group 3, 10 mg/mL (1%), 2 h post dose): 13.30 | OD IOP Mean ([2]; Phase 1 Group 3, 10 mg/mL (1%), 4 h post dose): 14.17 | OD IOP Mean ([2]; Phase 1 Group 3, 10 mg/mL (1%), 6 h post dose): 15.27 | OD IOP Mean ([2]; Phase 1 Group 3, 10 mg/mL (1%), 8 h post dose): 15.57 | OD IOP Mean ([2]; Phase 1 Group 3, 10 mg/mL (1%), 10 h post dose): 16.53 | OD IOP Mean ([2]; Phase 1 Group 4, 20 mg/mL (2%), 1 h post dose): 11.47 | OD IOP Mean ([2]; Phase 1 Group 4, 20 mg/mL (2%), 2 h post dose): 11.93 | OD IOP Mean ([2]; Phase 1 Group 4, 20 mg/mL (2%), 4 h post dose): 13.70 | OD IOP Mean ([2]; Phase 1 Group 4, 20 mg/mL (2%), 6 h post dose): 14.33 | OD IOP Mean ([2]; Phase 1 Group 4, 20 mg/mL (2%), 8 h post dose): 15.20 | OD IOP Mean ([2]; Phase 1 Group 4, 20 mg/mL (2%), 10 h post dose): 15.40

From patent US20220153746A1, “NITROGEN OXIDE-DONATING PDE-5 AND/OR PDE-6 INHIBITOR COMPOUNDS, AND USES THEREOF” (ILDONG PHARMACEUTICAL CO., LTD., priority 2020, published 2022)
